The source of these data is PMC10489644, “In Vitro Evaluation of the Potential for Drug Interactions by Salidroside” (Nutrients, 2023).

Like-named read-outs stand apart in the source and are kept apart here.

The subject of data set [1] is CYP1A2. Briefly: in vitro. The conditions noted are these: human; for Mean Fold Induction: 48 h. As for the experimental part:
The incubation solution was aspirated and replaced with incubation solution containing the same concentrations of salidroside, vehicle, or positive inducers for an additional 24 h. The total treatment period was 48 h. After the treatment period of 48 h, the incubation solution was aspirated. Hepatocytes were washed twice with pre-warmed HBSS containing 10 mM HEPES (HBSS I) and then the remaining solution was aspirated. Hepatocytes were washed once with pre-warmed HBSS I and incubated with 140 μL of RLT (lysis buffer from RNeasy 96 Kit) supplemented with 1% β-mercaptoethanol. Plates were then stored at −70 °C in a freezer until RNA analysis. Before RNA extraction, the frozen plate was thawed, and cell lysates were transferred to 96-well plates. RNA isolation was performed using a QIAcube RNA extraction system. Reverse transcription was performed to obtain cDNA. Quantification of the selective genes by real-time quantitative polymerase chain reaction (qPCR) was performed with TaqMan universal PCR Master Mix on the Bio-rad CFX384 TouchTM Real-Time PCR System. The relative change in the mRNA level of the selected target genes induced by each test compound was expressed in relation to the vehicle control sample, and fold changes in gene expression were determined by the ΔΔCt method.

Data set [2] can be described thus: Estimation of maximum human plasma concentration. How it is done:
An estimation of the maximum plasma concentration of salidroside in humans was made from the pharmacokinetics in rats after oral dosing and the recommended human daily dose of salidroside of 60 mg (two 30 mg capsules). Male Sprague–Dawley rats were dosed either with IV or orally at 12 mg/kg (N = 6/group). Salidroside was moderately cleared (21 mL/min/kg) and well absorbed orally.

Another data set has as its system CYP3A4. Briefly: in vitro. To be noted: human, Mean Fold Induction.
Data set [3] concerns CYP3A4/5. Kind of data set: in vitro. The conditions noted are these: human, microsomes.
Procedure: (§1) Test compound/controls working solution or DMSO were added in 238.5 µL of liver microsomes working solution, mixed well by pipetting several times and pre-incubated in a 37 °C shaking water bath for 5 min. Following the pre-incubation, 60 µL of NADPH working solution were added, mixed well by pipetting several times, and incubated in a 37 °C shaking water bath for 10 min. Following the incubation, 300 µL of quenching solution were immediately added and vortexed for ~20 s to mix. All samples were centrifuged at 4000 rpm for 15 min at 4 °C and then the supernatant was transferred for LC-MS/MS analysis. IC50 values were determined by the Hill slope equation using Graph Pad Prism.
(§2) For competitive and time-dependent CYP inhibition, the peak area ratios (PAR) of analyte/internal standard were used to semi-quantitatively determine the concentration of acetaminophen (CYP1A2 activity), 4’-hydroxydiclofenac (CYP2C9), 4’-hydroxymephenytoin (CYP2C19), dextrorphan (CYP2D6), 1’-hydroxymidazolam (CYP3A4), 6β-hydroxytestosterone (CYP3A4), hydroxybupropion (CYP2B6), and N-desethylamodiaquine (CYP2C8), with terfenadine as the internal standard by LC-MS/MS method. The HPLC-MS system utilized an Acquity UPLC system and Sciex API 4000 mass spectrometer in ESI positive mode, with quantitation employing MRM. Samples were injected onto an Atlantis T3 5 μM column (2.1 x 50 mm). […]
Data set [4] has as its target T1, CYP2B6 (Homo sapiens, UniProt P20813).
T1 sequence (P20813 1-491): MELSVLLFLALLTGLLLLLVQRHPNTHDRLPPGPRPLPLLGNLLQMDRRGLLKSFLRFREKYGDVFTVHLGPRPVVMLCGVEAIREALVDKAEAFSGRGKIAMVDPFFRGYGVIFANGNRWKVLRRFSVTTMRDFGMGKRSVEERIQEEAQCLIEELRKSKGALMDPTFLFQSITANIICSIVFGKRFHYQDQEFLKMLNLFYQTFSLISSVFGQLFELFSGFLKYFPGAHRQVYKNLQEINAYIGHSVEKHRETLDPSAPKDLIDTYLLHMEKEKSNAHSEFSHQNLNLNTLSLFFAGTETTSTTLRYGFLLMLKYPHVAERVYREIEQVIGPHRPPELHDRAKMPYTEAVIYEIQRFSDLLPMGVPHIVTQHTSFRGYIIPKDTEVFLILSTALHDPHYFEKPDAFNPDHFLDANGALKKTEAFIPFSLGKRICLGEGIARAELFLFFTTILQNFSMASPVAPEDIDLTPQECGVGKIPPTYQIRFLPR
Briefly: biochemical.
Procedure: as §1, §2

Data set [5] concerns CYP3A4/5. Briefly: in vitro. The conditions noted are these: human, microsomes. This is another data set of the same source.
Procedure: (§3) Incubation without 30 min pre-incubation, 178.5 µL of liver microsomes working was pre-incubated in a 37 °C water bath for 30 min. After the pre-incubation, 1.5 μL of test compound or control compound working solution, 60 μL of substrate working solution, and 60 μL of NADPH working solution were added; then, the reaction mixture was mixed by pipetting up and down and then incubated at 37 °C for 10 min. Incubation with 30 min pre-incubation. Next, 1.5 μL of test compound or control compound working solutions and 60 μL of NADPH working solution were added into 178.5 μL of liver microsome working solution, then the reaction mixture was mixed by pipetting up and down and then pre-incubated at 37 °C for 30 min. […]
(§4) For competitive and time-dependent CYP inhibition, the peak area ratios (PAR) of analyte/internal standard were used to semi-quantitatively determine the concentration of acetaminophen (CYP1A2 activity), 4’-hydroxydiclofenac (CYP2C9), 4’-hydroxymephenytoin (CYP2C19), dextrorphan (CYP2D6), 1’-hydroxymidazolam (CYP3A4), 6β-hydroxytestosterone (CYP3A4), hydroxybupropion (CYP2B6), and N-desethylamodiaquine (CYP2C8), with terfenadine as the internal standard by LC-MS/MS method. The HPLC-MS system utilized an Acquity UPLC system and Sciex API 4000 mass spectrometer in ESI positive mode, with quantitation employing MRM. […]
For data set [6], the target named is T2, CYP1A2 (Homo sapiens, UniProt P05177).
T2 construct: Mixed human liver microsomes were purchased from BioreclamationIVT; tissue BioreclamationIVT; host or cells: mixed-donor pool of human liver microsomes (Lot ZZQ)
T2 sequence (P05177 1-516): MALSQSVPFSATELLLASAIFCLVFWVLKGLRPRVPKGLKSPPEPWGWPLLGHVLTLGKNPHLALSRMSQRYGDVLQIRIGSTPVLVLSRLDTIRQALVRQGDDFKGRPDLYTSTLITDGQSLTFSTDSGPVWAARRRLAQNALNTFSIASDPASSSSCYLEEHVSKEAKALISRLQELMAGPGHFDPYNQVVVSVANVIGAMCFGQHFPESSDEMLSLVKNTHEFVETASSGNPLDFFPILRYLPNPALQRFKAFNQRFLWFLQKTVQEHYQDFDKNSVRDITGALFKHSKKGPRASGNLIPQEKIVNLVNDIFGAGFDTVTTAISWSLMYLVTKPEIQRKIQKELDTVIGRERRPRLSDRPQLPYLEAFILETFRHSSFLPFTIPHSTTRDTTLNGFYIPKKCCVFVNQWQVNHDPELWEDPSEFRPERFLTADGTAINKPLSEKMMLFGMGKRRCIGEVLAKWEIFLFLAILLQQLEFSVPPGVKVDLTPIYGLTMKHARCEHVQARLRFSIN
Briefly: Time-dependent inhibition (IC50 shift) in human liver microsomes. Type of data set: in vitro ADME. (In general: Liver microsomes are vesicles of endoplasmic reticulum, rich in cytochrome P450 enzymes.)
Procedure: Incubation without 30 min pre-incubation, 178.5 µL of liver microsomes working was pre-incubated in a 37 °C water bath for 30 min. After the pre-incubation, 1.5 μL of test compound or control compound working solution, 60 μL of substrate working solution, and 60 μL of NADPH working solution were added; then, the reaction mixture was mixed by pipetting up and down and then incubated at 37 °C for 10 min. Incubation with 30 min pre-incubation. Next, 1.5 μL of test compound or control compound working solutions and 60 μL of NADPH working solution were added into 178.5 μL of liver microsome working solution, then the reaction mixture was mixed by pipetting up and down and then pre-incubated at 37 °C for 30 min. After the pre-incubation, 60 μL of substrate working solution was added, then the reaction mixture was mixed by pipetting up and down and then incubated at 37 °C for 10 min. Following the incubation, 300 μL of quenching solution was added into the corresponding wells to terminate the reaction. All the above samples were vortexed for 1 min and centrifuged at 4000 rpm, 4 °C for 15 min. After centrifugation, the supernatant was removed for further LC-MS/MS analysis.
as §2

The target of data set [7] is T1, CYP2B6. The conditions noted are these: microsomes.
Procedure: as §3, §4
Another data set has as its target T3, CYP2C8 (Homo sapiens, UniProt P10632).
T3 sequence (P10632 1-490): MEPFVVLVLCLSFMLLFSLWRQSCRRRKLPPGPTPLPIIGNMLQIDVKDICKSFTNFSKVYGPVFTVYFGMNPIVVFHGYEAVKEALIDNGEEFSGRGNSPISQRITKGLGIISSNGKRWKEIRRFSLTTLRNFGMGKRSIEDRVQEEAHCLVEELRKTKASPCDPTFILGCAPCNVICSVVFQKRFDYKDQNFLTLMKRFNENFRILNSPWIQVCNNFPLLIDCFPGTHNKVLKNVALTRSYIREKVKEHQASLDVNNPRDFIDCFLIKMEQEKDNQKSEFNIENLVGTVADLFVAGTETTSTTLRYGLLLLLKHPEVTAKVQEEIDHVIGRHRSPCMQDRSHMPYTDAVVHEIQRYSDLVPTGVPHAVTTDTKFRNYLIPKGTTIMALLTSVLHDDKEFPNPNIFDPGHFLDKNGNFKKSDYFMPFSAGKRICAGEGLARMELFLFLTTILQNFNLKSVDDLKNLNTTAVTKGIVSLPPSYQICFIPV
Kind of data set: CYP direct inhibition in human liver microsomes.

Details of data set [8]: method as in PMID 29796228. The conditions noted are these: rat, cited from earlier work.
For a further data set, the target named is CYP2C9 (Homo sapiens, UniProt P11712). Kind of data set: Time-dependent inhibition (IC50 shift) in human liver microsomes.
Chain of CYP2C9 (P11712 whole entry): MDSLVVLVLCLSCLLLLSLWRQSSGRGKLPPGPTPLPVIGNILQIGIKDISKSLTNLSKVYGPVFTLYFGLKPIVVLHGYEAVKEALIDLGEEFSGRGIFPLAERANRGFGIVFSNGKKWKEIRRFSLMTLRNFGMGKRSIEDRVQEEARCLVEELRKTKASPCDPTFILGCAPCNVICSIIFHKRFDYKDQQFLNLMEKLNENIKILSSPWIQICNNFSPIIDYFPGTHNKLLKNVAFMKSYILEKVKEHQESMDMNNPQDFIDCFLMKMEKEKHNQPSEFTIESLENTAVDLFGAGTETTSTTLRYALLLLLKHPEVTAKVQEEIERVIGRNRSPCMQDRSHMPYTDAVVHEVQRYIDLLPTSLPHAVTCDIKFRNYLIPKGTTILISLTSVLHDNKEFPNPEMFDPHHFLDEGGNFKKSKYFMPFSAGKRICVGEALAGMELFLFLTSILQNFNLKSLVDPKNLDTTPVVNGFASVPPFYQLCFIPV

Procedure for CYP2C8: as §1, §2
Procedure for CYP2C9: as §3, §4

As for `OC[C@H]1O[C@@H](OCCc2ccc(O)cc2)[C@H](O)[C@@H](O)[C@@H]1O` [Salidroside], the “Mean Fold Induction” value in the data set on CYP1A2 [1] (1 µM) is 1.3 fold; with CYP1A2 [1] (3 µM), 1.0 fold; in the data set on CYP1A2 [1] (10 µM), 1.1 fold; in the data set with CYP1A2 [1] (30 µM), 1.2 fold. Besides, the fold induction – broadly, the signal under treatment as a multiple of the control signal – at 48 h, 1 µM in the data set with CYP1A2 [1] (Mean Fold Induction) was determined as 0.9; with CYP3A4, 0.7. Besides, the fold induction at 48 h, 3 µM in the data set with CYP1A2 [1] (Mean Fold Induction) turned out to be 0.9. Besides, the fold induction at 48 h, 10 µM in the data set with CYP1A2 [1] (Mean Fold Induction) turned out to be 0.9. Besides, the fold induction at 48 h, 30 µM in the data set with CYP1A2 [1] (Mean Fold Induction) amounted to 0.8. In addition, the Cmax in data set [2] (60 mg PO daily (~1 mg/kg), scaled from rat, read-out: predicted human total Cmax (predicted plasma concentration)) was < 2 µM; in [8] (oral 12 mg/kg, read-out: observed Cmax), 14.3 µM. Further, in data set [2] (60 mg daily, Cmax x fu,plasma), the “predicted human unbound Cmax” value is ~ 1.18 μM. In addition, the IC50 at 10 min with CYP3A4/5 [3] and with CYP3A4/5 [5] was > 50 µM each time. Besides, the IC50 (usually the point on the concentration scale where inhibition reaches its midpoint) at CYP2B6 [4] was > 50 µM; at CYP1A2 [6] (probe phenacetin, positive control not given, likely furafylline), > 50 µM; at CYP1A2 [6] (read-out: IC50 after 30 min Preincubation with NADPH, probe phenacetin, positive control not given, likely furafylline), > 50 µM; against CYP2C8, > 50 µM; on CYP2C9, > 50 µM. Moreover, the “IC50 Shift” value on CYP1A2 [6] (IC50 without/with preincubation, >[…] positive for TDI) is on record as “no shift”; on CYP2B6 [7] it was “no shift”. The clearance – broadly, the rate of elimination divided by the concentration – in data set [8] (12 mg/kg IV) was 21 mL/min/kg. Further, the “oral bioavailability (fb)” value in [8] (12 mg/kg oral) is 32.1%. Also, the observed Cmax in data set [8] (oral 12 mg/kg) was 4300 ng/mL.
